The conditions of series [1]: 25° C.; cited from earlier work.
A further series can be described thus: Physical property data. It counts as physicochemical.
Series [2] in a line: Toxicity LD50 data and review of MSDS.
A further series is described as follows: ASTM D1177 freeze point. It counts as physicochemical. The text has this:
FIG. 1 illustrates the aqueous solution freeze point characteristics of the 1,3-propanediol and GM 6043 (EG). […] This could be an indication that actual protection against hard, damaging freezing is actually better, approaching the effective protection point of the EG-based product. […] We feel that the antifreeze properties of the chemistry are acceptable. Indeed a 50% solution would provide adequate protection against freezing in most geographies. TC in FIG. 1 is an internal designation for the PDO aqueous solutions at 50, 55, and 60 volume percent PDO.

Series [3] in a line: Extended aging / oxidation comparison on D-4340 rig at 150° C. It counts as physicochemical. The note with it: 150° C. for 60 Days, two fully formulated coolant inhibition packages.

Like-named read-outs stand apart in the source and are kept apart here.

For the compound `CC(O)CO` (stereo not shown) [PG, propylene glycol], in series [1], the “Thermal Conductivity” value is 0.119 BTU/hr-ft-F. For the same compound, in the series “Physical property data” (20° C.), the “Specific Gravity, 20° C.” value is 1.032 and the Viscosity turned out to be 49 cP.
`OCCCO` [PDO, 1,3-propanediol]: the Toxicity entry in series [2] is listed as “PDO offers low”. Moreover, the “State at the reported freeze point” value in “ASTM D1177 freeze point” is “soft and slushy”. Further, in series [3], the “Degradation in terms of pH value and formation of oxidation by-products” value was “PDO degraded less”. Moreover, in the series “Physical property data” (20° C.), the “Specific Gravity, 20° C.” value was 1.0526 and the Viscosity is listed as 52 cP.
In the case of `OCCO` [EG, ethylene glycol], in the series “Physical property data”, the “Specific Gravity, 20° C.” value was 1.115 and the Viscosity is reported as 17 cP.

The record behind these values is patent US6818146B2, “Chemical base for engine coolant/antifreeze with improved thermal stability properties” (Shell Oil Company, priority 2001, dated 2004).
